Data: EP4624472A1, “DEGRADER INCLUDING NOVEL C-MET PROTEIN LIGAND AND PHARMACEUTICAL COMPOSITION INCLUDING SAME” (Innocure Therapeutics, Inc., priority 2022, dated 2024)

Tests used:
c-MET [1] = biological target: T1, c-MET (Homo sapiens, UniProt P08581); experiment: c-MET protein degradation (Simple Western) in SNU-638 cells; format: cell-based; design: To evaluate the degradation efficacy of the compounds of the present invention for c-MET expressed in cells; endogenous in cells; conditions: SNU-638, gastric cancer cell line treated 24 hours; c-MET expression normalized to GAPDH, 0.1% DMSO = 100%; read-out: In vitro cell viability assay (nM) SNU-638 DC50
T1 sequence (P08581 25-1390): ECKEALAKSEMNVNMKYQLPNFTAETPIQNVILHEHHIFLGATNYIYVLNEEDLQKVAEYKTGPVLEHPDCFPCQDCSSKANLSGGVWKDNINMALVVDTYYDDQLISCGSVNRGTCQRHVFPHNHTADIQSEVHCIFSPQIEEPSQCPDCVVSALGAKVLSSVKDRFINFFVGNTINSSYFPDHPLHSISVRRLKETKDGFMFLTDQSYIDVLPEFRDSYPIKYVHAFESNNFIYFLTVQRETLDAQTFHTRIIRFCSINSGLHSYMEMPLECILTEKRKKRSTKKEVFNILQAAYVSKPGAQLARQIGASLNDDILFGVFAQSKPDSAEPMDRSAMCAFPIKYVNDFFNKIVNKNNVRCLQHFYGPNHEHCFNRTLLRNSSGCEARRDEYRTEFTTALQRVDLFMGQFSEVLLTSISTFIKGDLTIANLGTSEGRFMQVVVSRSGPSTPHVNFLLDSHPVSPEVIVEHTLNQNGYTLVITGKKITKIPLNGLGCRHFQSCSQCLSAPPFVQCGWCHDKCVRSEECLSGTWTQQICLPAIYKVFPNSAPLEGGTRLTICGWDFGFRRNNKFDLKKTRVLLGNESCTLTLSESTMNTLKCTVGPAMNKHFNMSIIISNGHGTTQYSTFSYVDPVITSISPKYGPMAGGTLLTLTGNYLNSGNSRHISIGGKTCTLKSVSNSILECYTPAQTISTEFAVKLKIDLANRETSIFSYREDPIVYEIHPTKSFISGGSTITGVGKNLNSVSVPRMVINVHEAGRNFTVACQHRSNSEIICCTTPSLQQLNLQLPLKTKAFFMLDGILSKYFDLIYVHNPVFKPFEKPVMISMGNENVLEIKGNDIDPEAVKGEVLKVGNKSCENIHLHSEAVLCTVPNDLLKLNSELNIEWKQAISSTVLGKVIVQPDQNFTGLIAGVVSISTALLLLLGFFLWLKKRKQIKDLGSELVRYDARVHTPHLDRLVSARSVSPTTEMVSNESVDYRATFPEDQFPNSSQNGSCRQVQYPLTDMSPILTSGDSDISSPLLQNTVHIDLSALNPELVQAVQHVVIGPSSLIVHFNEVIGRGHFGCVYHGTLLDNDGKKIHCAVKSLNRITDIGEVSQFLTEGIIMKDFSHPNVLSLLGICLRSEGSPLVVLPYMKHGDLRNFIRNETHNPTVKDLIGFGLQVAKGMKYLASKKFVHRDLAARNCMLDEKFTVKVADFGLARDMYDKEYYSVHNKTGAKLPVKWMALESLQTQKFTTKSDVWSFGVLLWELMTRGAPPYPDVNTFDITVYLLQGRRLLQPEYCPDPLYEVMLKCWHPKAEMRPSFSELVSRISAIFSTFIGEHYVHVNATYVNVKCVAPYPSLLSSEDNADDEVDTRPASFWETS
Method: (§1) The c-MET overexpressing human gastric cancer cell lines MKN45 and SNU638 were cultured in RPMI medium with 10% fetal bovine serum, penicillin (100 U/ml), and streptomycin ([…]), and the c-MET exon 14 skipping mutant human gastric cancer cell line Hs746T was cultured in DMEM media. The c-MET overexpressing human lung cancer cell line EBC-1 was cultured in MEM media with the addition of 10% fetal bovine serum, penicillin (100U/ml), and streptomycin ([…]). The normal cell line WI-38 derived from human lung tissue was cultured in EMEM medium with the addition of 10% fetal bovine serum, penicillin (100U/ml), and streptomycin ([…]).
(§2) The compound synthesized in accordance with the present invention was prepared with a raw material solution of 10 mM dissolved in DMSO (dimethyl sulfoxide), and was sequentially diluted and processed.
(§3) To evaluate the degradation efficacy of the compounds of the present invention for c-MET expressed in cells, cells were dispensed in a 12-well plate at a concentration of 2 × 10^5 cells/well, and then gastric cancer cell lines were treated with samples for 24 hours and lung cancer cell lines were treated for 48 hours.
(§4) To perform a western blotting assay to confirm protein expression, cells treated with a compound treated with 40 µL of RIPA buffer with a protease inhibitor for 30 minutes, collected cell lysate using a scraper on ice, and centrifuged at 4°C 15,000 rpm for 30 min to obtain a protein-containing supernatant.
(§5) Protein expression was then measured using the Simple Western Automated Western Blot System Abby instrument using 3 µg of protein for each sample. SDS and heat-induced denaturation proteins were separated by molecular weight, attached to the capillary, reacted with anti-c-MET or anti-GAPDH antibodies, which are primary antibodies, and then reacted with HRP-conjugated secondary antibodies, and analyzed the protein expression signal with compass software.
(§6) Protein expression was normalized based on the expression value of GAPDH, and the protein expression amount in each sample was measured as a percentage (%) based on 100% of samples treated with 0.1% DMSO carrier, and DC50 (concentration of a compound where 50% protein inhibition is achieved) was calculated from the change in protein expression amount due to compound treatment.

EBC-1 = experiment: In vitro cell viability assay (cancer cell anti-proliferative activity), EBC-1; format: cell-based, human; conditions: Homo sapiens; EBC-1 cells, treated 72 hours; read-out: In vitro cell viability assay (nM) EBC-1 IC50
Method: as §1, §2
(§7) In order to evaluate the inhibitory activity on cell growth, cells were dispensed in a 96-well plate at a concentration of 5,000 cells/well and then treated with the compound of the present invention prepared at various concentrations for 72 hours. The absorbance measurement at 450 nm was calculated using the GraphicPad Prism 8.0 software. The IC50 value (concentration of the compound achieving 50% cytostatic inhibition) is the average value of the measured results. […]

c-MET [2] = biological target: T1, c-MET; experiment: c-MET protein degradation (Simple Western) in EBC-1 cells; format: cell-based; design: To evaluate the degradation efficacy of the compounds of the present invention for c-MET expressed in cells; endogenous in cells; host or cells: EBC-1 (human lung cancer cell line); conditions: EBC-1, lung cancer cell line treated 48 hours; c-MET expression normalized to GAPDH, 0.1% DMSO = 100%; read-out: In vitro cell viability assay (nM) EBC-1 DC50
Method: as §1, §2, §3, §4, §5, §6

SNU-638 = experiment: In vitro cell viability assay (cancer cell anti-proliferative activity), SNU-638; format: cell-based, human; conditions: Homo sapiens; SNU-638 cells, treated 72 hours; read-out: In vitro cell viability assay (nM) SNU-638 IC50
Method: as §1, §2, §7

c-MET [3] = biological target: T2, c-MET (Homo sapiens, UniProt P08581, DEL964-1010); experiment: c-MET protein degradation (Simple Western) in Hs746T cells; format: cell-based; conditions: Hs746T (c-MET exon 14 skipping mutant), gastric cancer cell line treated 24 hours; c-MET expression normalized to GAPDH, 0.1% DMSO = 100%; read-out: In vitro cell viability assay (nM) Hs746T DC50
T2 construct: To evaluate the degradation efficacy of the compounds of the present invention for c-MET expressed in cells; endogenous in cells; host or cells: Hs746T (human gastric cancer cell line)
T2 sequence (P08581 with tags, fused parts or gaps DEL964-1010 limits assumed): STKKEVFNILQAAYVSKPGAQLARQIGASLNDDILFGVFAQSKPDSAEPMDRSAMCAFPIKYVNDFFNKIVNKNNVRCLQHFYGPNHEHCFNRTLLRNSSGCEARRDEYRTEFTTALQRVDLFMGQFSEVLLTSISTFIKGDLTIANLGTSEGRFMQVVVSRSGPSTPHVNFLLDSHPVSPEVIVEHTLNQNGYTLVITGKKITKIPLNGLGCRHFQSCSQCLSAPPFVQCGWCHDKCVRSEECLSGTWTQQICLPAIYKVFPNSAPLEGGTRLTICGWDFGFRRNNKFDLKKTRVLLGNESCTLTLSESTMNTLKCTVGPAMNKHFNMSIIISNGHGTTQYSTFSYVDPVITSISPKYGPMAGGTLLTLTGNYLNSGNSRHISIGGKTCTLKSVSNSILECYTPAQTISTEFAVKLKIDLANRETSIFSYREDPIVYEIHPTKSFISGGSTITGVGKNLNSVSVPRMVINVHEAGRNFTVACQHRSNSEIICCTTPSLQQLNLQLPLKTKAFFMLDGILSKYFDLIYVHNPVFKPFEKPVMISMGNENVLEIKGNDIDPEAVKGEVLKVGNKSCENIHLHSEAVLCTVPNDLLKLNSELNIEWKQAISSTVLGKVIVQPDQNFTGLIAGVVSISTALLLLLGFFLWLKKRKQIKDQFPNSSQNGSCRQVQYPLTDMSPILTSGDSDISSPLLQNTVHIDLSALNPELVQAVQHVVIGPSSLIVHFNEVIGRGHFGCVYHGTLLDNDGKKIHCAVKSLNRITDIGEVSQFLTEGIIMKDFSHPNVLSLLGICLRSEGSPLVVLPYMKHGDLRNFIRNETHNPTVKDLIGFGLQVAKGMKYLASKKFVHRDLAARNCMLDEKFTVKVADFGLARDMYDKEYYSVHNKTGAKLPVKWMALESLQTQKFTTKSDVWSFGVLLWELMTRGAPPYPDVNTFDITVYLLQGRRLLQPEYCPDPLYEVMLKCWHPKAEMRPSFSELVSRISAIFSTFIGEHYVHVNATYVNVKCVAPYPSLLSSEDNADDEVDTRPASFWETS
T2 sequence (P08581 25-307 partner limits assumed): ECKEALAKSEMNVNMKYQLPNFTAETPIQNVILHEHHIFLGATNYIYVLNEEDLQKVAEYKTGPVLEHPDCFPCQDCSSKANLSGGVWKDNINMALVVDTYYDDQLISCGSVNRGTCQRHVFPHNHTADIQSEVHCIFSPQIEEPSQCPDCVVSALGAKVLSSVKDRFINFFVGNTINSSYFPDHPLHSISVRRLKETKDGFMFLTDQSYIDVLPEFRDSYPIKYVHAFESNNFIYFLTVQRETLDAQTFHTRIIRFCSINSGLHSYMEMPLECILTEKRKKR
Method: as §1, §2, §3, §4, §5, §6

Hs746T = experiment: In vitro cell viability assay (cancer cell anti-proliferative activity), Hs746T; format: cell-based; conditions: Homo sapiens; Hs746T cells, treated 72 hours
Method: as §1, §2, §7

**Q.** Which DC50 (c-MET [1]) does the source give for `N#Cc1cccc(-c2ccc(=O)n(Cc3cccc(-c4ncc(OCCN5CCN(c6ccc(NC7CCC(=O)NC7=O)cc6F)CC5)cn4)c3)n2)c1` (stereo not shown) [Example E-6, 3-(1-(3-(5-(2-(4-(4-((2,6-dioxopiperidin-3-yl)amino)2-fluorophenyl)piperazine-1-yl)ethoxy)pyrimidine-2-yl)benzyl)6-oxo-1,6-dihydropyridazine-3-yl)benzonitrile] here?
**A.** > 1000 nM

**Q.** What about the IC50 (EBC-1) of the same compound?
**A.** ≤ 100 nM

**Q.** What about the DC50 (c-MET [2]) of the same compound?
**A.** > 1000 nM

**Q.** And the IC50 (SNU-638)?
**A.** ≤ 100 nM

**Q.** `N#Cc1cccc(-c2ccc(=O)n(Cc3cccc(-c4ncc(OCCN5CCN(c6ccc7c(=O)n(C8CCC(=O)NC8=O)ncc7c6)CC5)cn4)c3)n2)c1` (stereo not shown) [Example E-4] was tested. Which DC50 (c-MET [3]) did it give?
**A.** ≤ 100 nM

**Q.** And the DC50 (c-MET [1])?
**A.** > 1000 nM

**Q.** What about the IC50 (Hs746T) of the same compound?
**A.** ≤ 100 nM

**Q.** What about the IC50 (EBC-1) of the same compound?
**A.** ≤ 100 nM

**Q.** What about the DC50 (c-MET [2]) of the same compound?
**A.** ≤ 100 nM

**Q.** And the IC50 (SNU-638)?
**A.** ≤ 100 nM

**Q.** How did the DC50 (c-MET [1]) turn out when `N#Cc1cccc(-c2ccc(=O)n(Cc3cccc(-c4ncc(N5CCN(CC6CN(c7ccc(NC8CCC(=O)NC8=O)cc7F)C6)CC5)cn4)c3)n2)c1` (stereo not shown) [Example E-7] was run?
**A.** ≤ 100 nM

**Q.** And the IC50 (EBC-1)?
**A.** ≤ 100 nM

**Q.** What about the DC50 (c-MET [2]) of the same compound?
**A.** ≤ 100 nM

**Q.** What about the IC50 (SNU-638) of the same compound?
**A.** ≤ 100 nM

**Q.** `Cc1nn(C2CCC(=O)NC2=O)c(=O)c2ccc(N3CCN(CC4CCN(CC5CN(c6cnc(N7CCO[C@H](Cn8nnc9nc(-c%10cnn(C)c%10)cnc98)C7)nc6)C5)CC4)CC3)cc12` (stereo partly drawn) [Example D-4] was tested. Which DC50 (c-MET [3]) did it give?
**A.** ≤ 100 nM

**Q.** What about the DC50 (c-MET [1]) of the same compound?
**A.** ≤ 1000 nM

**Q.** What about the IC50 (Hs746T) of the same compound?
**A.** ≤ 100 nM

**Q.** And the IC50 (EBC-1)?
**A.** ≤ 100 nM

**Q.** What about the DC50 (c-MET [2]) of the same compound?
**A.** ≤ 100 nM

**Q.** What about the IC50 (SNU-638) of the same compound?
**A.** ≤ 100 nM

**Q.** Which DC50 (c-MET [3]) does the source give for `N#Cc1cccc(-c2ccc(=O)n(Cc3cccc(-c4ncc(N5CCN(CC6CCN(c7ccc(NC8CCC(=O)NC8=O)cc7F)CC6)CC5)cn4)c3)n2)c1` (stereo not shown) [Example E-8] here?
**A.** ≤ 100 nM

**Q.** What about the DC50 (c-MET [1]) of the same compound?
**A.** > 1000 nM

**Q.** What about the IC50 (Hs746T) of the same compound?
**A.** ≤ 100 nM

**Q.** What about the IC50 (EBC-1) of the same compound?
**A.** ≤ 100 nM

**Q.** And the DC50 (c-MET [2])?
**A.** ≤ 100 nM

**Q.** What about the IC50 (SNU-638) of the same compound?
**A.** ≤ 100 nM

**Q.** What does the source list for `Cc1nn(C2CCC(=O)NC2=O)c(=O)c2ccc(N3CCO[C@@H](COc4cnc(-c5cccc(Cn6nc(-c7cccc(C#N)c7)ccc6=O)c5)nc4)C3)cc12` (stereo partly shown) [Example E-1]?
**A.** DC50 (c-MET [3]): ≤ 100 nM; DC50 (c-MET [1]): > 1000 nM; IC50 (Hs746T): ≤ 100 nM; IC50 (EBC-1): ≤ 100 nM; DC50 (c-MET [2]): ≤ 100 nM; IC50 (SNU-638): ≤ 100 nM

**Q.** For `Cc1nn(C2CCC(=O)NC2=O)c(=O)c2ccc(N3CCN(CCOc4cnc(-c5cccc(Cn6nc(-c7cccc(C#N)c7)ccc6=O)c5)nc4)CC3)cc12` (stereo not shown) [Example E-5], which DC50 (c-MET [3]) is on record?
**A.** ≤ 100 nM

**Q.** And the DC50 (c-MET [1])?
**A.** ≤ 100 nM

**Q.** And the IC50 (Hs746T)?
**A.** ≤ 100 nM

**Q.** What about the IC50 (EBC-1) of the same compound?
**A.** ≤ 100 nM

**Q.** What about the DC50 (c-MET [2]) of the same compound?
**A.** ≤ 100 nM

**Q.** And the IC50 (SNU-638)?
**A.** ≤ 100 nM

**Q.** `Cn1cc(-c2cnc3c(nnn3C[C@@H]3CN(c4ncc(N5CC(CN6CCN(CC7CCN(c8ccc(NC9CCC(=O)NC9=O)cc8F)CC7)CC6)C5)cn4)CCO3)n2)cn1` (stereo partly drawn) [Example D-5] was tested. Which DC50 (c-MET [3]) did it give?
**A.** > 1000 nM

**Q.** What about the DC50 (c-MET [1]) of the same compound?
**A.** > 1000 nM

**Q.** And the IC50 (Hs746T)?
**A.** > 1000 nM

**Q.** And the IC50 (EBC-1)?
**A.** ≤ 100 nM

**Q.** And the DC50 (c-MET [2])?
**A.** > 1000 nM

**Q.** And the IC50 (SNU-638)?
**A.** ≤ 100 nM

**Q.** What does the source list for `N#Cc1cccc(-c2ccc(=O)n(Cc3cccc(-c4ncc(OC[C@H]5CN(c6ccc7c(=O)n(C8CCC(=O)NC8=O)ncc7c6)CCO5)cn4)c3)n2)c1` (stereo partly drawn) [Example E-2, 3-(1-(3-(5-(((2R)-4-(2-(2,6-dioxopiperidin-3-yl)-1-oxo-1,2-dihydrophthalazine-6-yl)morpholine-2-yl)methoxy)pyrimidin-2-yl)benzyl)6-oxo-1,6-dihydropyridazine-3-il)benzonitrile]?
**A.** DC50 (c-MET [3]): ≤ 100 nM; IC50 (Hs746T): ≤ 100 nM; IC50 (EBC-1): ≤ 100 nM; DC50 (c-MET [2]): ≤ 100 nM

**Q.** With `N#Cc1cccc(-c2ccc(=O)n(Cc3cccc(-c4ncc(OC[C@@H]5CN(c6ccc(NC7CCC(=O)NC7=O)cc6F)CCO5)cn4)c3)n2)c1` (stereo partly drawn) [Example E-3, 3-(1-(3-(5-(((2R)-4-(4-((2,6-dioxopiperidin-3-yl)amino)-2-fluorophenyl)morpholine-2-yl)methoxy)pyrimidine-2-yl)benzyl)6-oxo-1,6-dihydropyridazine-3-il)benzonitrile] as the compound, how does the DC50 (c-MET [1]) read?
**A.** > 1000 nM

**Q.** What about the IC50 (EBC-1) of the same compound?
**A.** ≤ 100 nM

**Q.** And the DC50 (c-MET [2])?
**A.** > 1000 nM

**Q.** What about the IC50 (SNU-638) of the same compound?
**A.** ≤ 100 nM

**Q.** How did the DC50 (c-MET [3]) turn out when `Cn1cc(-c2cnc3c(nnn3C[C@@H]3CN(c4ncc(N5CC(CN6CCN(c7ccc8c(=O)n(C9CCC(=O)NC9=O)ncc8c7)CC6)C5)cn4)CCO3)n2)cn1` (stereo partly drawn) [Example D-1, 3-(6-(4-((1-(2-((S)-2-((5-(1-methyl-1H-pyrazole-4-yl)-1H-[1,2,3]triazolo[4,5-b]pyrazine-1-yl)methyl)morpholine-5-il)azetidin-3-il)methyl)piperazine-1-il)piperazine-1-il)1-oxopthalazine-2(1H)-day)piperidine-2,6-dione] was run?
**A.** ≤ 100 nM

**Q.** And the DC50 (c-MET [1])?
**A.** > 1000 nM

**Q.** What about the IC50 (Hs746T) of the same compound?
**A.** ≤ 100 nM

**Q.** What about the IC50 (EBC-1) of the same compound?
**A.** ≤ 100 nM

**Q.** And the DC50 (c-MET [2])?
**A.** ≤ 100 nM

**Q.** What about the IC50 (SNU-638) of the same compound?
**A.** ≤ 100 nM
